Where two headings read alike, the source gives them in different places.
Molecular target: T1, human TrkA (Homo sapiens, UniProt P04629)
T1 construct: purchased Lifetechnologies PV3144
Assay: Human TrkA inhibition assay
Format: biochemical
Conditions: human TrkA phosphorylation inhibition, ATP 500 μmol/L
Protocol: Seven point five L per well of human TrkA (PV3144, Lifetechnologies, final concentration: 1 nmol/L) suspended in the assay buffer (100 mmol/L 4-(2-hydroxyethyl)-1-piperazineethanesulfonic acid (HEPES), 10 mmol/L magnesium chloride, 0.003 vol % Brij-35, 0.004 vol % Tween20 and 1 mmol/L dithiothreitol (DTT)) was applied in a 384 well plate and the plate was pre-incubated for 15 min at room temperature with 0.4 μL of each compound (final concentration: 200 μmol/L-0.1 nM) dissolved in DMSO. Then, fluorescent substrate (FL-peptide 27, 760424, PerkinElmer, final concentration: 1.5 μmol/L) and ATP (final concentration 500 μmol/L) dissolved in the assay buffer was added in each well. After the incubation of 120 min at 37° C., fifteen μL of termination buffer (100 mmol/L HEPES, 40 mmol/L ethylenediaminetetraacetic acid (EDTA), 10 mmol/L magnesium chloride, 0.003 vol % Brij-35, 0.004 vol % Tween20, 1 mmol/L DTT and 0.16 vol % Coating Reagent 3) was added in each well to stop the enzyme reaction. Fluorescent intensities (FI) of phosphorylated and non-phosphorylated fluorescent substrates were measured by LabChip EZReader II (Caliper LifeSciences, Inc.), and conversion ratio (CR) was calculated by the following formula-1. The CR in the well applied with DMSO alone was used as a negative control and the CR in the well without applying TrkA was used as a positive control. The inhibitory effect of each compound on TrkA phosphorylation was calculated by the following formula-2. CR (%)=(FI of phosphorylated substrate/(FI of phosphorylated substrate+FI of non-phosphorylated substrate))×100 (Formula-1) Phosphorylation inhibition (%)=(1−(CR with compound treatment−CR of positive control)/(CR of negative control−CR of positive control))×100 (Formula-2)
IC50 values (nmol/L) were determined by the logistic regression using the inhibition data in 10 points of 3-fold dilution series at a compound concentration range of 2 μmol/L to 0.1 nmol/L, or 15 points of 3-fold dilution series at the range of 200 μmol/L to 0.04 nmol/L.

T1 sequence (P04629 33-796): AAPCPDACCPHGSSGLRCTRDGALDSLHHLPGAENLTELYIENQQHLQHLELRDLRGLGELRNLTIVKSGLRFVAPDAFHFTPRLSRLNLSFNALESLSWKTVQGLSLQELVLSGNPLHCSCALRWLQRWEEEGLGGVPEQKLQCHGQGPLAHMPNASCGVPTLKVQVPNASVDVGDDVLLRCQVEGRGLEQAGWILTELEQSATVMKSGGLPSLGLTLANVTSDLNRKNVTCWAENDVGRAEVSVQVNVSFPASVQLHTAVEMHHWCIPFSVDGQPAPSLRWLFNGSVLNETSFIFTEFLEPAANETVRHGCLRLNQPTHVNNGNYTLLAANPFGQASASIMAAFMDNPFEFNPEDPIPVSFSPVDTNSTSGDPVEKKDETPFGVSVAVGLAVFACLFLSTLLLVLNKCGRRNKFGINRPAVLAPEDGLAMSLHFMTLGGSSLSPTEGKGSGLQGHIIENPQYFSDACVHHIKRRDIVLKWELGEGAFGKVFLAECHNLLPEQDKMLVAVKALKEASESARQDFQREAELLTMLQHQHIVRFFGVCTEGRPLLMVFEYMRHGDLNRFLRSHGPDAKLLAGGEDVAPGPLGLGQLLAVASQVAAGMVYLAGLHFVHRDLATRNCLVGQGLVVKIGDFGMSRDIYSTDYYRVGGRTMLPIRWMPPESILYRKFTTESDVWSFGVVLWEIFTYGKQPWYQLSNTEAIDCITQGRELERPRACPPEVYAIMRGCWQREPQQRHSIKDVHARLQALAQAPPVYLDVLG

IC50 (read-out: IC50_nM) | IC50 (read-out: IC50 value) | SMILES
< 100 nM |  | COCCN1C[C@@H](NC(=O)Nc2c(C)c(-c3ccnc(C(=O)N[C@@H]4CCCOC4)c3)nn2-c2ccccc2)[C@H](c2ccccc2)C1 (mixture of isomers) [Compound I-72]
< 100 nM |  | COCCN1C[C@@H](NC(=O)Nc2c(C)c(-c3cnn(C)c3)nn2-c2ccccc2)[C@H](c2ccnc(Cl)c2)C1 (racemic) [Compound I-1]
< 100 nM |  | COCCN1C[C@@H](NC(=O)Nc2c(C)c(-c3cnn(C)c3)nn2-c2ccccc2)[C@H](c2ccnc(F)c2)C1 (racemic) [Compound I-2]
< 100 nM |  | COCCN1C[C@@H](NC(=O)Nc2c(C)c(-c3ccc4c(cnn4C)c3)nn2-c2ccccc2)[C@H](c2ccccc2)C1 (racemic) [Compound I-3]
100 to 1000 nM |  | COCCN1C[C@@H](NC(=O)Nc2c(C)c(-c3cnn(C)c3)nn2-c2ccccc2)[C@H](c2cc(Cl)nc(Cl)c2)C1 (racemic) [Compound I-4]
< 100 nM |  | COCCN1C[C@@H](NC(=O)Nc2c(C)c(-c3cnn(C)c3)nn2-c2ccccc2)[C@H](c2cc(F)nc(F)c2)C1 (racemic) [Compound I-7]
< 100 nM |  | COCCN1C[C@@H](NC(=O)Nc2c(C)c(-c3ccc(C(=O)NCC(F)(F)F)nc3)nn2-c2ccccc2)[C@H](c2ccccc2)C1 (racemic) [Compound I-12]
< 100 nM |  | COCCN1C[C@@H](NC(=O)Nc2c(C)c(-c3cnn(C)c3)nn2-c2ccccc2)[C@H](c2cnc(Cl)c(F)c2)C1 (racemic) [Compound I-16]
< 100 nM |  | COCCN1C[C@@H](NC(=O)Nc2c(C)c(-c3cnc4c(cnn4C)c3)nn2-c2ccccc2)[C@H](c2ccccc2)C1 (racemic) [Compound I-17]
> 1000 nM |  | Cc1c(-c2cnn(C)c2)nn(-c2ccccc2)c1NC(=O)N[C@@H]1CN(Cc2ccccc2)C[C@H]1c1ccnc(F)c1 (racemic) [Compound I-18]
< 100 nM |  | COCCN1C[C@@H](NC(=O)Nc2c(C)c(-c3cnn(C)c3)nn2-c2ccccc2)[C@H](c2cnc(F)c(Cl)c2)C1 (racemic) [Compound I-19]
< 100 nM |  | Cc1c(-c2cnn(C)c2)nn(-c2ccccc2)c1NC(=O)N[C@@H]1CN(CCOC(F)(F)F)C[C@H]1c1ccnc(F)c1 (racemic) [Compound I-20]
< 100 nM |  | COCCN1C[C@@H](NC(=O)Nc2c(C)c(-c3ccc4c(cnn4C)c3)nn2-c2ccccc2)[C@H](c2cnc(F)c(F)c2)C1 (racemic) [Compound I-26]
< 100 nM |  | COCCN1C[C@@H](NC(=O)Nc2c(C)c(-c3ccc(C(=O)NCc4ccccc4)nc3)nn2-c2ccccc2)[C@H](c2ccccc2)C1 (racemic) [Compound I-27]
< 100 nM |  | COCCN1C[C@@H](NC(=O)Nc2c(C)c(-c3cnc4cnn(C)c4c3)nn2-c2ccccc2)[C@H](c2ccccc2)C1 (racemic) [Compound I-28]
< 100 nM |  | COCCN1C[C@@H](NC(=O)Nc2c(C)c(-c3ccnc(C(=O)NC4CCOCC4)c3)nn2-c2ccccc2)[C@H](c2ccccc2)C1 (racemic) [Compound I-29]
< 100 nM |  | COCCN1C[C@@H](NC(=O)Nc2c(C)c(-c3cnc4nccn4c3)nn2-c2ccccc2)[C@H](c2ccccc2)C1 (racemic) [Compound I-30]
< 100 nM |  | COCCN1C[C@@H](NC(=O)Nc2c(C)c(-c3cnc(OCCO)nc3)nn2-c2ccccc2)[C@H](c2ccccc2)C1 (racemic) [Compound I-31]
< 100 nM |  | COCCN1C[C@@H](NC(=O)Nc2c(C)c(-c3cnc4nc(C)nn4c3)nn2-c2ccccc2)[C@H](c2ccccc2)C1 (racemic) [Compound I-32]
< 100 nM |  | COCCN1C[C@@H](NC(=O)Nc2c(C)c(-c3cnc4ncnn4c3)nn2-c2ccccc2)[C@H](c2ccccc2)C1 (racemic) [Compound I-33]
< 100 nM |  | COCCN1C[C@@H](NC(=O)Nc2c(C)c(-c3cnc4nc(C)oc4c3)nn2-c2ccccc2)[C@H](c2ccccc2)C1 (racemic) [Compound I-34]
< 100 nM |  | CNC(=O)c1ccc(-c2nn(-c3ccccc3)c(NC(=O)N[C@@H]3CN(CCOC)C[C@H]3c3ccccc3)c2C)cn1 (racemic) [Compound I-35]
< 100 nM |  | COCCN1C[C@@H](NC(=O)Nc2c(C)c(-c3ccc(C(=O)N(C)C)nc3)nn2-c2ccccc2)[C@H](c2ccccc2)C1 (racemic) [Compound I-36]
< 100 nM |  | COCCN1C[C@@H](NC(=O)Nc2c(C)c(-c3cnc4c(c3)nnn4C)nn2-c2ccccc2)[C@H](c2ccccc2)C1 (racemic) [Compound I-37]

IC50 (read-out: IC50_nM) | IC50 (read-out: IC50 value) | SMILES
< 100 nM |  | COCCN1C[C@@H](NC(=O)Nc2c(C)c(-c3cnc4c(ccn4C)c3)nn2-c2ccccc2)[C@H](c2ccccc2)C1 (racemic) [Compound I-38]
< 100 nM |  | COCCN1C[C@@H](NC(=O)Nc2c(C)c(-c3cnn(C)c3)nn2-c2ccccc2)[C@H](c2cc(F)nc(Cl)c2)C1 (racemic) [Compound I-39]
< 100 nM |  | COCCN1C[C@@H](NC(=O)Nc2c(C)c(-c3cnc4ccnn4c3)nn2-c2ccccc2)[C@H](c2ccccc2)C1 (racemic) [Compound I-40]
< 100 nM |  | COCCN1C[C@@H](NC(=O)Nc2c(C)c(-c3ccc(C(=O)NC4CCOCC4)nc3)nn2-c2ccccc2)[C@H](c2ccccc2)C1 (racemic) [Compound I-41]
< 100 nM |  | COCCN1C[C@@H](NC(=O)Nc2c(C)c(-c3ccc(C(N)=O)nc3)nn2-c2ccccc2)[C@H](c2ccccc2)C1 (racemic) [Compound I-42]
< 100 nM |  | CCN1CCC(NC(=O)c2cc(-c3nn(-c4ccccc4)c(NC(=O)N[C@@H]4CN(CCOC)C[C@H]4c4ccccc4)c3C)ccn2)CC1 (racemic) [Compound I-43]
< 100 nM |  | COCCN1C[C@@H](NC(=O)Nc2c(C)c(-c3ccnc(C(N)=O)c3)nn2-c2ccccc2)[C@H](c2ccccc2)C1 (racemic) [Compound I-44]
< 100 nM |  | CNC(=O)c1cc(-c2nn(-c3ccccc3)c(NC(=O)N[C@@H]3CN(CCOC)C[C@H]3c3ccccc3)c2C)ccn1 (racemic) [Compound I-45]
< 100 nM |  | CCNC(=O)c1cc(-c2nn(-c3ccccc3)c(NC(=O)N[C@@H]3CN(CCOC)C[C@H]3c3ccccc3)c2C)ccn1 (racemic) [Compound I-46]
< 100 nM |  | COCCN1C[C@@H](NC(=O)Nc2c(C)c(-c3ccnc(C(=O)N(C)C)c3)nn2-c2ccccc2)[C@H](c2ccccc2)C1 (racemic) [Compound I-47]
< 100 nM |  | COCCN1C[C@@H](NC(=O)Nc2c(C)c(-c3ccnc(C(=O)NCC(F)(F)F)c3)nn2-c2ccccc2)[C@H](c2ccccc2)C1 (racemic) [Compound I-48]
< 100 nM |  | COCCN1C[C@@H](NC(=O)Nc2c(C)c(-c3ccnc(C(=O)NCCO)c3)nn2-c2ccccc2)[C@H](c2ccccc2)C1 (racemic) [Compound I-49]
< 100 nM |  | CCN1CCC(NC(=O)c2ccc(-c3nn(-c4ccccc4)c(NC(=O)N[C@@H]4CN(CCOC)C[C@H]4c4ccccc4)c3C)cn2)CC1 (racemic) [Compound I-50]
< 100 nM |  | COCCN1C[C@@H](NC(=O)Nc2c(C)c(-c3cnc4c(c3)ncn4C)nn2-c2ccccc2)[C@H](c2ccccc2)C1 (racemic) [Compound I-51]
< 100 nM |  | CNC(=O)c1cc(-c2nn(-c3ccccc3)c(NC(=O)N[C@@H]3CN(CCOC)C[C@H]3c3ccccc3)c2C)cn(C)c1=O (racemic) [Compound I-52]
< 100 nM |  | CNC(=O)c1cc(-c2nn(-c3ccccc3)c(NC(=O)N[C@@H]3CN(CCOC)C[C@H]3c3ccccc3)c2C)cnc1OC (racemic) [Compound I-53]
< 100 nM |  | CCNC(=O)c1cc(-c2nn(-c3ccccc3)c(NC(=O)N[C@@H]3CN(CCOC)C[C@H]3c3ccccc3)c2C)cn(C)c1=O (racemic) [Compound I-54]
< 100 nM |  | CCNC(=O)c1cc(-c2nn(-c3ccccc3)c(NC(=O)N[C@@H]3CN(CCOC)C[C@H]3c3ccccc3)c2C)cnc1OC (racemic) [Compound I-55]
 | 0.98 nM | COCCN1C[C@@H](NC(=O)Nc2c(C)c(-c3cc(C(=O)NC4CCOCC4)c(=O)n(C)c3)nn2-c2ccccc2)[C@H](c2ccccc2)C1 (racemic) [Compound I-56]
 | 1 nM | COCCN1C[C@@H](NC(=O)Nc2c(C)c(-c3cnc(OC)c(C(=O)NC4CCOCC4)c3)nn2-c2ccccc2)[C@H](c2ccccc2)C1 (racemic) [Compound I-57]
< 100 nM |  | COCCN1C[C@@H](NC(=O)Nc2c(C)c(-c3cnc(C)nc3)nn2-c2ccccc2)[C@H](c2cnc(F)c(F)c2)C1 (racemic) [Compound I-60]
< 100 nM |  | CNC(=O)c1ncc(-c2nn(-c3ccccc3)c(NC(=O)N[C@@H]3CN(CCOC)C[C@H]3c3ccccc3)c2C)cc1C (racemic) [Compound I-61]
< 100 nM |  | COCCN1C[C@@H](NC(=O)Nc2c(C)c(-c3cnn(C)c3)nn2-c2ccccc2)[C@H](c2cnc(Cl)s2)C1 (racemic) [Compound I-62]
